# According to patent US9440941B2, “Substituted chroman-6-yloxy-cycloalkanes and their use as pharmaceuticals” (SANOFI, priority 2013, dated 2016):
# Where a name gives a salt, the structure may show the parent alone.
# Target: T1, human NCX1 (Homo sapiens, UniProt P32418)
# T1 construct: expressed in transfected cells
# Assay: Inhibition of Ca2+ influx into cells (NCX1 reverse mode), FLIPR Fluo-4 assay
# Assay type: cell-based
# Conditions: at 10 μM; NCX1 reverse mode; IC50 value not determined; read-out: Inhibition in % at 10 μM (NCX1rv)
# Description: The sodium/calcium exchanger NCX1 can transport calcium ions and sodium ions through the cell membrane. The transport is an exchange of Ca^2+ and Na^+ in two directions depending on membrane potential and ion gradients. At the first direction, named “forward mode” or “calcium export mode”, Ca^2+ is transported out of the cell and Na^+ is transported into the cell. At the other direction, named “reverse mode” or “calcium import mode”, the transport directions are vice versa. The effect of the compounds of the invention on NCX1 was determined in CHO cells stably expressing human NCX1 (gene symbol SLC8A1; cf. WO 2009/115238). The assay is based on the monitoring of intracellular Ca^2+ concentrations using a calcium-sensitive fluorescence dye which is detected by means of a FLIPR device (Fluorimetric Imaging Plate Reader, Molecular Devices).
# Assay Technology—Reverse Mode
# The assay is based on the monitoring of intracellular Ca^2+ concentrations using the calcium-sensitive dye Fluo-4. CHO cells expressing NCX1 were loaded with the dye by means of the acetoxymethyl ester Fluo-4 AM (Invitrogen, F14202), which is cleaved intracellularly by esterase activity to yield the charged species of free Fluo-4. After an preincubation period with the test compound, Gramicidine (Sigma, G5002) was added. Gramicidine is an ionophor for Na^+ ions mediating an increase of intracellular Na^+ ions. Consequently, intracellular Na^+ ions are exchanged against extracellular Ca^2+ ions (Ca^2+ influx, reverse mode). The intracellular elevation of Ca^2+ ions was detected by measuring the fluorescence of Fluo-4 at a wavelength of 520 nm by a FLIPR device.
# Briefly, for the reverse mode transport assay 18000 cells per well were seeded into a 96 well microplate (Corning COSTAR 3904) and incubated overnight in culture medium (1× Nut Mix F12 (Ham) (Gibco, 21765-029); 10% (v/v) fetal calf serum (PAA Gold, A15-649); 450 μg/ml Geneticin (Gibco, 10131-027)). A total volume of 100 μl medium per well was used. For the preparation of the FLIPR assay, the culture medium was removed from the plates and 100 μl of dye solution (2 μM Fluo-4 AM; 0.02% (v/v) Pluronic F-127 (20%, Invitrogen, P3000MP); 0.1% (v/v) bovine albumin solution (30% (v/v), Sigma, A9205) in assay buffer (133.8 mM NaCl (Sigma, S5886); 4.7 mM KCl (Sigma, P3911); 1.25 mM MgCl2 (Merck, 1.05833.0250); 3.5 mM CaCl2 (Merck, 1.02083.0250); 5 mM glucose (Sigma, G7021); 10 mM Hepes (Sigma, H4034); 0.01% (v/v) Pluronic F-127 (5%, Sigma, P2443); 2.5 mM Probenecid (Maybridge, SB00915EB); pH 7.4)) were added into each well. The plates were incubated in the dark at room temperature for 80 min. After the incubation period, the dye solution was removed and the wells were washed with 100 μl of assay buffer. Then 80 μl of a solution of the test compound in assay buffer in different concentrations were added into the wells. The plates were incubated at 16° C. for 45 min. Meanwhile a 60 μM solution of Gramicidine in assay buffer (4° C.) was prepared and stored in the wells of a 96 well microplate (96 well microplate, polypropylene, U-shape (Greiner Bio-One, 650201)) at 4° C. until measurement was started. The fluorescence monitoring was performed at 240 measuring points with measurement intervals of 2 sec. After the fifth measuring point, 40 μl of the Gramicidine solution were added to each well of the assay plates to give a final Gramicidine concentration of 20 μM. For the determination of the IC50 values the minimal fluorescence value was subtracted from the maximal fluorescence value for all measuring points. The calculation of the IC50 values via the percentage inhibitions of Ca^2+ influx into cells (reverse mode) effected by the test compound was performed in Biost@t Speed 2.0.
row,Molecule,inhibition at 10 µM [%]
1,CCOCCCNC1CCC(Oc2ccc3c(c2)CCC(c2ccccc2C)O3)CC1 (centres unmarked) [compound 201],98

# Same assay, conditions: inhibition of NCX1 in reverse mode (Ca2+ influx into cells); read-out: NCX1rv IC50
row,Molecule,IC50 [nM]
1,CCn1nccc1CNC(=O)C1CCC(Oc2ccc3c(c2)CCC(c2cccc(F)c2C)O3)CC1 (centres unmarked) [compound 283],600
2,O=C(CCn1cncn1)N[C@H]1CC[C@H](Oc2ccc3c(c2)CCC(c2ccccc2)O3)CC1 (relative stereo) [compound 38],400
3,COCCC(=O)N[C@H]1CC[C@H](Oc2ccc3c(c2)CCC(c2ccccc2)O3)CC1 (relative stereo) [compound 30],300
4,Cc1ccccc1C1CCc2cc(OC3CCC(NC4CCS(=O)(=O)C4)CC3)ccc2O1 (centres unmarked) [compound 206],1100
5,FC(F)(F)CCN[C@H]1CC[C@H](Oc2ccc3c(c2)CCC(c2ccccc2)O3)CC1 (relative stereo) [compound 54],600
6,Fc1ccccc1C1CCc2cc(O[C@H]3CC[C@H](NCC4CCOC4)CC3)ccc2O1 (relative stereo) [compound 178],1600
7,"Cc1c(F)cccc1C1CCc2cc(OC3CCC(C(=O)NC4CCCCC4O)CC3)ccc2O1 (single isomer, unassigned) [compound 286]",500
8,COCCC(=O)N[C@H]1CC[C@H](Oc2ccc3c(c2)CCC(c2ccccc2F)O3)CC1 (relative stereo) [compound 243],700
9,N-(3-Hydroxypropyl)-4-(2-phenylchroman-6-yloxy)-cyclohexanecarboxamide [compound 150],900
10,COCCCNC1CCC(Oc2ccc3c(c2)CCC(c2ccccc2)O3)CC1 (centres unmarked) [compound 121],700
11,"Cc1nc(CN[C@H]2CC[C@H](Oc3ccc4c(c3)CCC(c3ccccc3)O4)CC2)cs1 (stereo partly drawn) [compound 59, N-(2-Methylthiazol-4-ylmethyl)-[trans-4-(2-phenylchroman-6-yloxy)]-cyclohexylamine]",500
12,COCC(C)(C)CNC1CCC(Oc2ccc3c(c2)CCC(c2ccccc2)O3)CC1 (centres unmarked) [compound 115],1000
13,O=C(CC1CC1)N[C@H]1CC[C@H](Oc2ccc3c(c2)CCC(c2ccccc2F)O3)CC1 (relative stereo) [compound 252],300
14,N-But-3-enyl-4-(2-phenylchroman-6-yloxy)-cyclohexylamine [compound 148],900
15,N-Pentyl-4-(2-phenylchroman-6-yloxy)-cyclohexylamine [compound 144],600
16,"C[C@@H](N)C(=O)N[C@H]1CC[C@H](Oc2ccc3c(c2)CCC(c2ccccc2)O3)CC1 (some centres unmarked) [compound 72, hydrochloride]",300
17,4-(2-Phenylchroman-6-yloxy)-N-(2-pyrrolidin-1-ylethyl)cyclohexylamine [compound 137],1300
18,"Cc1cc(CN(Cc2cc(C)on2)[C@H]2CC[C@H](Oc3ccc4c(c3)CCC(c3ccccc3)O4)CC2)no1 (stereo partly drawn) [compound 82, N,N-Bis(5-methylisoxazol-3-ylmethyl)-[trans-4-(2-phenylchroman-6-yloxy)]-cyclohexylamine]",3800
19,CCOCCCNC1CCC(Oc2ccc3c(c2)CCC(c2ccccc2)O3)CC1 (centres unmarked) [compound 112],900
20,c1ccc(C2CCc3cc(O[C@H]4CC[C@H](NCC5CCOC5)CC4)ccc3O2)cc1 (relative stereo) [compound 61],300
21,N-[2-(1-Isopropylpiperidin-4-yl)ethyl]-4-(2-phenylchroman-6-yloxy)-cyclohexylamine [compound 136],1800
22,O=C(NCc1ccno1)C1CCC(Oc2ccc3c(c2Cl)CCC(c2ccccc2)O3)CC1 (centres unmarked) [compound 292],1900
23,CC(=O)N[C@H]1CC[C@@H](Oc2ccc3c(c2)CCC(c2ccccc2)O3)CC1 (relative stereo) [compound 6],500

row,Molecule,IC50 [nM]
1,4-(2-Phenylchroman-6-yloxy)-N-(2-thiomorpholin-4-ylethyl)cyclohexylamine [compound 139],1000
2,Cc1n[nH]c(C)c1CC(=O)N[C@H]1CC[C@H](Oc2ccc3c(c2)CCC(c2ccccc2F)O3)CC1 (relative stereo) [compound 235],1500
3,CN(C)C(=O)NC1CCC(Oc2ccc3c(c2)CCC(c2ccccc2)O3)CC1 (centres unmarked) [compound 16],1300
4,"CC(C)(C)CN[C@H]1CC[C@H](Oc2ccc3c(c2)CCC(c2ccccc2)O3)CC1 (relative stereo) [compound 58, N-(2,2-Dimethylpropyl)-[trans-4-(2-phenylchroman-6-yloxy)]-cyclohexylamine]",600
5,Cc1ccccc1C1CCc2cc(O[C@H]3CC[C@@H](C(=O)Nc4ccccn4)CC3)ccc2O1 (relative stereo) [compound 265],400
6,"NC1(Cc2ccccc2)CCC(Oc2ccc3c(c2)CCC(c2ccccc2)O3)CC1 (single isomer, unassigned) [compound 46, 1-Benzyl-4-(2-phenylchroman-6-yloxy)-cyclohexylamine, stereoisomeric mixture 2]",11000
7,CC(C)OCCCNC1CCC(Oc2ccc3c(c2)CCC(c2ccccc2F)O3)CC1 (centres unmarked) [compound 225],3900
8,O=C(Cn1cncn1)N[C@H]1CC[C@H](Oc2ccc3c(c2)CCC(c2ccccc2)O3)CC1 (relative stereo) [compound 35],100
9,Cc1c(F)cccc1C1CCc2cc(OC3CCC(C(=O)NCC(C)O)CC3)ccc2O1 (centres unmarked) [compound 276],600
10,Cc1n[nH]cc1CN[C@H]1CC[C@H](Oc2ccc3c(c2)CCC(c2ccccc2)O3)CC1 (some centres unmarked) [compound 66],400
11,c1ccc(C2CCc3cc(OC4CCC(NCc5ccoc5)CC4)ccc3O2)cc1 (centres unmarked) [compound 103],800
12,c1ccc(C2CCc3cc(OC4CCC(NC5CCCCC5)CC4)ccc3O2)cc1 (centres unmarked) [compound 105],1100
13,"OC1CCC(Oc2ccc3c(c2)CCC(c2ccccc2)O3)CC1 (centres unmarked) [compound 74, 4-(2-Phenylchroman-6-yloxy)cyclohexanol]",300
14,Cc1ccccc1C1CCc2cc(OC3CCC(NCCN4CCSCC4)CC3)ccc2O1 (centres unmarked) [compound 209],3200
15,CS(=O)(=O)CCC(=O)N[C@H]1CC[C@H](Oc2ccc3c(c2)CCC(c2ccccc2)O3)CC1 (relative stereo) [compound 21],200
16,O=C(N[C@H]1CC[C@H](Oc2ccc3c(c2)CCC(c2ccccc2F)O3)CC1)c1ccncc1F (relative stereo) [compound 246],100
17,Cc1nc(CC(=O)N[C@H]2CC[C@H](Oc3ccc4c(c3)CCC(c3ccccc3F)O4)CC2)c(C)s1 (relative stereo) [compound 245],300
18,Cc1c(F)cccc1C1CCc2cc(OC3CCC(C(=O)NCC(=O)N(C)C)CC3)ccc2O1 (centres unmarked) [compound 273],600
19,"CC(C)CN[C@H]1CC[C@H](Oc2ccc3c(c2)CCC(c2ccccc2)O3)CC1 (stereo partly drawn) [compound 65, N-Isobutyl-[trans-4-(2-phenylchroman-6-yloxy)]-cyclohexylamine]",400
20,Cc1noc(C)c1C(=O)N[C@H]1CC[C@H](Oc2ccc3c(c2)CCC(c2ccccc2F)O3)CC1 (relative stereo) [compound 242],500
21,Cc1nn(C)c(C)c1CNC1CCC(Oc2ccc3c(c2)CCC(c2ccccc2)O3)CC1 (centres unmarked) [compound 104],800
22,CSC(C)CCNC1CCC(Oc2ccc3c(c2)CCC(c2ccccc2C)O3)CC1 (centres unmarked) [compound 175],3500
23,Cc1ccccc1C1CCc2cc(OC3CCC(NCCN4CCOCC4)CC3)ccc2O1 (centres unmarked) [compound 202],1900
